Assay results taken from patent publication US8324261B2, “Histidine derivatives” (Nippon Zoki Pharmaceutical Co., Ltd., priority 2007, dated 2012).
Read-outs that look alike come from different tables or passages of the source.

Assays:
[1] = set-up: species or system cynomolgus monkeys; conditions: cynomolgus monkey, in vivo, 30 mg/kg
Procedure: Each of the compound of the present invention and Carboxylic acid type A thereof dissolved or suspended in a hydrochloric acid solution was diluted with water. […] At the stages of before the administration and of 0.25, 0.5, 1, 2, 4, 8 and 24 hour(s) after the administration, the blood was collected from femoral vein using a syringe to which heparin was added followed by subjecting to centrifugation to collect the plasma. Collection of the blood was conducted for three times in total where one collection was done with each blank term of six days for each test substance. Concentration of Carboxylic acid type A in each of the collected plasma samples was quantified by an LC-MS and Cmax (maximum drug concentration in plasma) and AUC (area under blood concentration time curve; 0 to ∞ hour(s)) of the compound of the present invention and Carboxylic acid type A thereof were calculated.

[2] = Test of kinetics in blood of rats; assay type: in vivo; conditions: rat, in vivo, po, 10 mg/kg
Procedure: Each of the compound of the present invention and the carboxylic acid type A thereof was dissolved in DMSO, diluted with water. A sample solution (1% DMSO solution) made into 2 mg/mL was orally administered in a single dose to the fasted Wistar strain SPF male rats of seven weeks age using a stomach tube (10 mg/5 mL/kg). At the stages of 0.25, 0.5, 1, 2, 4 and 8 hour(s) after the administration, about 150 μL of the blood was collected from tail vein using a capillary to which heparin was added and said capillary was centrifuged to collect the plasma. Protein was removed from the plasma sample and the supernatant liquid was diluted to prepare each sample solution for the measurement.

mice [3] = assay: Single dose toxicity test by administration to mice; assay type: in vivo; conditions: intraperitoneal 250, 500 and 1,000 mg/kg; 14 days
Procedure: A single dose toxicity test by intraperitoneal administration of the carboxylic acid type of the compounds of the present invention to mice was carried out. Male mice of ddY strain of four weeks age were made into groups of five mice so as to make mean body weight in each group nearly the same. Carboxylic acid type A as a test substance was intraperitoneally administered at the doses of 250 mg/kg, 500 mg/kg and 1,000 mg/kg.

mice [4] = assay: Test for analgesic effect (4): acetic acid writhing test; assay type: in vivo; conditions: oral single dose; 0.7% acetic acid i.p. 25 minutes after; writhing numbers during 10 minutes
Procedure: The compounds of the present invention or the carboxylic acid type thereof were orally administered to mice and a test for an analgesic effect was carried out by means of an acetic acid writhing test. As to the test animals, male mice of ddY strain of four weeks age were subjected to a preliminary breeding and they were used where one group comprised ten mice. Each of the compound of the present invention or the carboxylic acid type thereof as a test substance was orally administered in a single dose while, to a control group, distilled water (water for injection) was administered similarly. After 25 minutes from the administration of the test substance, a 0.7% acetic acid/physiological saline was intraperitoneally administered at the dose of 10 mL/kg. From 5 minutes thereafter, writhing numbers during 10 minutes were counted and a suppressive rate for each mouse was calculated according to the following formula. Suppressive Rate (%)=[(Mean writhing numbers of the control group)−(Writhing numbers of each mouse)]÷[Mean writhing numbers of the control group]×100

Chung model rat = assay: Test for analgesic effect (2)/(3): Chung model rat, mechanical allodynia by von Frey filament; assay type: in vivo, rats
Procedure: A test for analgesic effect was conducted using a Chung model rat which is a neuropathic pain model. As to the test animal, male rats of Wistar strain of nine weeks age were used and model rats were prepared in accordance with the method of Kim and Chung (Pain, vol. 50, pages 355 to 363, 1992). Thus, under anesthetization with pentobarbital (40 mg/kg, intraperitoneal administration), rat L5 spinal nerve was exposed and L5 dorsal root ganglion periphery side was strongly ligated using 5-0 silk yarn. The animals were placed in a transparent acrylate cage whose bottom was made of wire net, a 50% reaction threshold value was calculated by an up-down method using a von Frey filament (manufactured by North Coast Medical Inc.) according to the methods of Chaplan, et al. (J. Neurosci. Method, vol. 53, pages 55 to 63, 1994) and by Lee, et al. (J. Neurophysiol., vol. 81, pages 2226 to 2233, 1999) and measurement of allodynia was conducted. Before injury of spinal nerve, the 50% reaction threshold value was measured twice and the animals where the threshold value was outside the standard were excluded from the operation for spinal nerve injury. […] Those test animals were made into groups of seven animals so that the mean value of 50% reaction threshold after 28 days from the nerve injury as an index became nearly the same in each group.
The carboxylic acid type of the compounds of the present invention as a test substance was intraperitoneally administered in a single dose while, a 0.5% CMC-Na/physiological saline solution was administered similarly to a nerve injury control group. After 30 minutes from the administration of the test substance, allodynia was measured to calculate a 50% reaction threshold value. With regard to a significance test, Paired t-test was conducted for comparison between before and after the nerve injury and Dunnett's multiple comparison test was used for comparison among multiple groups of the nerve injury control group and the test substance administration group.
According to the same manner as in the above Test for Analgesic Effect (2), each of Compound 12 of the present invention (3 mg/kg, 10 mg/kg) and Carboxylic acid substance A of the compound of the present invention (10 mg/kg) was orally administered in a single dose as the test substance to Chung model rats. Allodynia after 0, 15, 30, 60 and 120 minutes from the administration was measured for each of the test substance administration group and the nerve injury control group whereupon a 50% reaction threshold value was calculated.

SART stressed mouse = assay: Test for analgesic effect (1): SART stressed mouse, modified Randall-Selitto tail pressure method; assay type: in vivo, mice
rats [5] = assay: Hyperalgesia in osteoarthritis model induced by monoiodoacetic acid into joints of rats; assay type: in vivo; conditions: oral administration of 1 mg/kg
rats [6] = assay: Formalin pain test for rats, second phase; assay type: in vivo; conditions: oral administration of 100 mg/kg
[7] = intraperitoneally administered 100 μg/kg to mice

Compound: C=CC(=O)N[C@@H](Cc1cncn1C)C(=O)O [Carboxylic acid type A, N^α-acryloyl-N^π-methyl-L-histidine]
- AUC [1]: 2356.9 ng·h/mL
- Cmax [1]: 410.8 ng/mL
- AUC [2]: 1339.4 ng·h/mL
- Cmax [2]: 372.5 ng/mL
- death (mice [3]): no death case
- Suppressive Rate (%) (mice [4]): 33.1%
- threshold as compared with the nerve injury control group (Chung model rat; intraperitoneal single dose): significant increase in the threshold
- 50% reaction threshold value (Chung model rat; intraperitoneally 100 μg/kg single dose, 30 minutes after administration): 9.60 g
- anti-allodynia action to mechanical allodynia (Chung model rat; oral administration, dose of 10 mg/kg, peak after 30 minutes): significant anti-allodynia action
- ED50 value determined from the improving rate at the peak of the action (Chung model rat; oral administration, peak after 30 minutes): 2.4 mg/kg
- anti-allodynia action as compared with the nerve injury control group (Chung model rat; oral single dose (Compound 12: 3 and 10 mg/kg; Carboxylic acid type A: 10 mg/kg), 15, 30 and 60 minutes after administration, FIG. 1): significant anti-allodynia action
- Analgesic coefficient (SART stressed mouse; 25 ng per mouse into the lateral ventricle, 30 minutes after administration, pain threshold of test group divided by that of SART control group, 1.0 = no effect): 1.33
- Analgesic coefficient (SART stressed mouse; [7]): 1.24
- pain threshold value (SART stressed mouse; [7]): 97.8 g
- analgesic action (SART stressed mouse; oral administration in mice, dose of 3 and 10 mg/kg, peak after 30 minutes): significant analgesic action
- ED50 value determined from the improving rate at peak of action (SART stressed mouse; oral administration in mice, peak after 30 minutes): 2.7 mg/kg
- analgesic effect on hyperalgesia (rats [5]): significant analgesic effect
- analgesic action against pain reaction in the second phase (rats [6]): significant analgesic action
